{"source": "PubChem BioAssay AID588374", "about": "(Southern Research Specialized Biocontainment Screening …, 2011)", "note": "Several values for one entry are separate records, joined by “and”; a condition that tells them apart may be missing. Identical values can stand only once. Inconclusive results are not listed. Activity calls are given as the source filed them.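 The calls were made as follows: active = viability below 70% at one or more tested concentrations in every replicate; inactive = viability above 70% at all doses, or replicates disagree.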"}
{"test_system": "Vero E6 viability, CellTiter-Glo luminescence, 72 h", "test": "Vero E6 cell cytotoxicity, SAR follow-up, cytotoxicity control for West Nile virus antiviral project, synthesized analogs, extended characterization 1 (AID 588374)", "conditions": "not given", "units": {"CC50": "µM"}}
{"smiles": "O=C(CSc1nc2ccccc2c(=O)n1-c1ccc(Cl)c(Cl)c1)Nc1nc2cc(Cl)ccc2o1", "CC50": 18.8}
{"smiles": "Cc1nc2cc(NC(=O)CSc3nc4ccccc4c(=O)n3-c3ccc(Cl)c(Cl)c3)ccc2s1", "CC50": 18}
{"smiles": "O=C(CSc1nc2ccccc2c(=O)n1-c1ccccc1)Nc1nc2cc(Cl)ccc2o1", "CC50": 31.7}
{"smiles": "O=C(CSc1nc2ccccc2c(=O)n1-c1ccc(Cl)c(Cl)c1)Nc1ncc([N+](=O)[O-])s1", "CC50": 21.7}
{"smiles": "O=C(CCCCSc1nc2ccccc2c(=O)n1-c1ccccc1)Nc1ccc2c(c1)CCC2", "CC50": 50}
{"smiles": "Cn1c(NC(=O)CSc2nc3ccccc3c(=O)n2-c2ccccc2)nc2ccccc21", "CC50": 16.4}
{"smiles": "O=C(CSc1nc2ccccc2c(=O)n1-c1cc(Cl)cc(Cl)c1)Nc1cccc2c1CCC2", "CC50": 17.5}
{"smiles": "O=C(CCCCSc1nc2ccccc2c(=O)n1-c1ccc(F)c(Cl)c1)Nc1ccc2c(c1)CCC2", "CC50": 93.9}
{"smiles": "O=C(CSc1nc2ccccc2c(=O)n1-c1ccc(Cl)c(Cl)c1)Nc1nccs1", "CC50": 14.9}
{"smiles": "O=C(CSc1nc2ccccc2c(=O)n1-c1cc(F)c(F)c(F)c1)Nc1ccc2c(c1)OCO2", "CC50": 32.8}
{"smiles": "O=C(CSc1nc2ccccc2c(=O)n1-c1cc(F)c(F)c(F)c1)NC1CCc2ccccc21", "note": "(configuration not stated)", "CC50": 36}
{"smiles": "O=C(CSc1nc2ccccc2c(=O)n1-c1ccccc1)Nc1ccc2c(c1)OCO2", "CC50": 57.3}
{"smiles": "O=C(CCSc1nc2cccc(F)c2c(=O)n1-c1ccccc1)Nc1ccc2c(c1)CCC2", "CC50": 52.6}
{"smiles": "O=C(CSc1nc2ccccc2c(=O)n1-c1ccccc1)Nc1nc2ccc([N+](=O)[O-])cc2s1", "CC50": 40.5}
{"smiles": "O=C(CSc1nc2ccccc2c(=O)n1-c1cc(Cl)cc(Cl)c1)Nc1nccs1", "CC50": 18}
{"smiles": "O=C(CSc1nc2ccccc2c(=O)n1-c1ccccc1)Nc1cccc2c1CCC2", "CC50": 37.3}
{"smiles": "Cc1cnc(NC(=O)CSc2nc3ccccc3c(=O)n2-c2ccc(Cl)c(Cl)c2)s1", "CC50": 28.8}
{"test_system": "not listed separately", "test": "Vero E6 cell cytotoxicity, SAR follow-up, cytotoxicity control for West Nile virus antiviral project, synthesized analogs, extended characterization 1 (AID 588374)", "conditions": "Vero E6 viability, CellTiter-Glo luminescence, 72 h; at 50 µM (top of the series)"}
{"smiles": "Cn1c(NC(=O)CSc2nc3ccccc3c(=O)n2-c2ccc(Cl)c(Cl)c2)nc2ccccc21", "viability": "74.2% (inactive)"}
{"smiles": "O=C(CSc1nc2cccc(F)c2c(=O)n1-c1ccccc1)Nc1ccc2ncsc2c1", "viability": "86.2% (inactive)"}
{"smiles": "O=C(CSc1nc2ccccc2c(=O)n1-c1ccc(F)c(F)c1)Nc1nccs1", "viability": "74.1% (inactive)"}
{"smiles": "O=C(CSc1nc2ccccc2c(=O)n1-c1ccc(Cl)c(Cl)c1)Nc1cccc2c1CCC2", "viability": "76.2% (inactive)"}
{"smiles": "O=C(CSc1nc2ccccc2c(=O)n1-c1ccc(Cl)c(Cl)c1)NC1CCc2ccccc21", "note": "(configuration not stated)", "viability": "73.8% (inactive)"}
{"smiles": "O=C(CSc1nc2ccccc2c(=O)n1-c1ccccc1)Nc1nc(-c2ccccc2)cs1", "viability": "77.7% (inactive)"}
{"smiles": "O=C(CSc1nc2ccccc2c(=O)n1-c1cc(F)c(F)c(F)c1)Nc1ccc2c(c1)CCC2", "viability": "76.3% (inactive)"}
{"test_system": "not listed separately", "test": "Vero E6 cell cytotoxicity, SAR follow-up, cytotoxicity control for West Nile virus antiviral project, synthesized analogs, extended characterization 1 (AID 588374)", "conditions": "Vero E6 viability, CellTiter-Glo luminescence, 72 h; at 100 µM (top of the series)"}
{"smiles": "O=C(CSc1nc2ccccc2c(=O)n1-c1ccc(Cl)c(Cl)c1)Nc1ccc2c(c1)CCC2", "viability": "70.3% (inactive)"}
{"smiles": "Cc1nc2cc(NC(=O)CSc3nc4ccccc4c(=O)n3-c3ccccc3)ccc2s1", "viability": "75.1% (inactive)"}
{"smiles": "O=C(CSc1nc2ccccc2c(=O)n1-c1ccc(F)c(Cl)c1)Nc1cccc2ccccc12", "viability": "75.5% (inactive)"}
{"smiles": "O=C(CCCSc1nc2cccc(F)c2c(=O)n1-c1ccc(Cl)c(F)c1)Nc1ccc2c(c1)CCC2", "viability": "82.9% (inactive)"}
{"smiles": "O=C(CCCSc1nc2ccccc2c(=O)n1-c1ccc(Cl)c(Cl)c1)Nc1ccc2c(c1)CCC2", "viability": "80.6% (inactive)"}
{"smiles": "O=C(CSc1nc2cccc(F)c2c(=O)n1-c1ccccc1)Nc1ccc2c(c1)OCO2", "viability": "76.3% (inactive)"}
{"smiles": "O=C(CSc1nc2ccccc2c(=O)n1-c1ccc(F)c(F)c1)NC1CCCc2ccccc21", "note": "(configuration not stated)", "viability": "76.2% (inactive)"}
{"smiles": "O=C(CSc1nc2ccccc2c(=O)n1-c1cc(Cl)cc(Cl)c1)Nc1cccc2ccccc12", "viability": "83.8% (inactive)"}
{"smiles": "O=C(CCCSc1nc2ccccc2c(=O)n1-c1ccccc1)Nc1ccc2c(c1)CCC2", "viability": "85.5% (inactive)"}
{"smiles": "O=C(CSc1nc2ccccc2c(=O)n1-c1ccc(Cl)c(Cl)c1)Nc1ccc2c(c1)OCO2", "viability": "74.2% (inactive)"}
{"smiles": "O=C(CSc1nc2ccccc2c(=O)n1-c1ccccc1)Nc1ccc2ncsc2c1", "viability": "88.3% (inactive)"}
{"smiles": "O=C(CSc1nc2ccccc2c(=O)n1-c1ccccc1)Nc1nccs1", "viability": "96.3% (inactive)"}
{"smiles": "O=C(CSc1nc2ccccc2c(=O)n1-c1ccc(Cl)c(Cl)c1)N1CCCCCC1", "viability": "74.5% (inactive)"}
{"smiles": "O=C(CSc1nc2ccccc2c(=O)n1-c1ccccc1)Nc1ccc2c(c1)CCC2", "viability": "76.9% (inactive) and 77% (inactive)"}
{"smiles": "O=C(CCCCSc1nc2ccccc2c(=O)n1-c1cc(F)c(F)c(F)c1)Nc1ccc2c(c1)CCC2", "viability": "70.2% (inactive)"}
{"smiles": "O=C(CCCSc1nc2cccc(F)c2c(=O)n1-c1ccc(F)c(F)c1)Nc1ccc2c(c1)CCC2", "viability": "78% (inactive)"}
{"smiles": "O=C(CSc1nc2ccccc2c(=O)n1-c1ccccc1)NC1CCc2ccccc21", "note": "(configuration not stated)", "viability": "75.5% (inactive)"}
{"smiles": "O=C(COc1nc2ccccc2c(=O)n1-c1ccccc1)Nc1ccc2c(c1)CCC2", "viability": "71.6% (inactive)"}
{"smiles": "O=C(CSc1nc2ccccc2c(=O)n1-c1ccc(Cl)c(Cl)c1)Nc1ccc2scnc2c1", "viability": "75.5% (inactive)"}
{"smiles": "O=C(CCCCSc1nc2cccc(F)c2c(=O)n1-c1ccc(Cl)c(F)c1)Nc1ccc2c(c1)CCC2", "viability": "81.9% (inactive)"}
{"smiles": "O=C(CCCSc1nc2cccc(F)c2c(=O)n1-c1ccc(F)c(Br)c1)Nc1ccc2c(c1)CCC2", "viability": "81.7% (inactive)"}
{"smiles": "O=C(CCSc1nc2ccccc2c(=O)n1-c1ccc(F)c(Cl)c1)Nc1ccc2c(c1)CCC2", "viability": "77.6% (inactive)"}
{"smiles": "O=C(CSc1nc2ccccc2c(=O)n1-c1ccccc1)NC1Cc2ccccc2C1", "viability": "75.3% (inactive)"}
